One may read the IC50 as the concentration that inhibits the measured activity by half.

Test [1] addresses T1, Estrogen receptor (Homo sapiens, UniProt P03372).
T1 sequence (P03372 whole entry): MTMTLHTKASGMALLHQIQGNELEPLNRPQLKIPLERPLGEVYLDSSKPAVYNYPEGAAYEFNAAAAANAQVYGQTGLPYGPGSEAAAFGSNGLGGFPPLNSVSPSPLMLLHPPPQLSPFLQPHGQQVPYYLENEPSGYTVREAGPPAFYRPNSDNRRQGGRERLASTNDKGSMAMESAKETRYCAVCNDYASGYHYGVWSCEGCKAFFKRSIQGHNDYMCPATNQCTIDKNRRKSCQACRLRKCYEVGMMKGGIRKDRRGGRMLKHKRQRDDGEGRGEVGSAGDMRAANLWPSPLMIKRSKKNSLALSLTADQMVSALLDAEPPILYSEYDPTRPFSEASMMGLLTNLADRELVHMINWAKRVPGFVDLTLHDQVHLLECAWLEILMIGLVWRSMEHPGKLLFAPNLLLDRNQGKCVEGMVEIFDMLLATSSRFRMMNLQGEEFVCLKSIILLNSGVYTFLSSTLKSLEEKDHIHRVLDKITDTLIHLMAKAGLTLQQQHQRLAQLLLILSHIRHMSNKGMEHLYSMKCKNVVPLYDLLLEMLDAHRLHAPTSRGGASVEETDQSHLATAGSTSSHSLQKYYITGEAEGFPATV
Kind of test: Induction of ERalpha protein degradation in human MCF7 cells assessed as reduction in ERalpha protein levels incubated for 24 hrs by In-cell western assay. Type of test: cell-based. Conditions: for DC50: mcf7, read-out: IC50 (the source's name).

Test [2] has as its target T2, Estrogen receptor (Homo sapiens) (UniProt P03372).
T2 sequence (whole entry): T1 sequence (P03372 whole entry)
Kind of test: Displacement of [3H]estradiol from full length human ERalpha by competitive radiometric binding assay relative to estradiol. In general terms: Loss of bound radioactivity is the signal in a displacement assay; it reports binding, not function.

Test [3] has as its system MCF7. Kind of test: Antiproliferative activity against human MCF7 cells assessed as reduction in cell viability incubated for 6 days by WST1 dye based assay. Conditions: MCF7, 144 h. Type of test: functional. Background: Tetrazolium assays rely on reduction of a dye to a coloured formazan, in cell work by metabolically active cells.

Take `O=C(NCCCCOc1ccc(C(=C2C3CC4CC(C3)CC2C4)c2ccc(O)cc2)cc1)C1CCCCC1`: the DC50 in test [1] is 0.4 nM.

In the case of `O=C(NCCCOc1ccc(C(=C2C3CC4CC(C3)CC2C4)c2ccc(O)cc2)cc1)C12CC3CC(CC(C3)C1)C2`, the DC50 in test [1] turned out to be 3 nM.

In test [2], `O=C(NCCCCOc1ccc(C(=C2C3CC4CC(C3)CC2C4)c2ccc(O)cc2)cc1)[C@H]1C[C@@H]2C=C[C@H]1C2` gave an RBA of 37%. In addition, in test [3], the IC50 amounted to 9 nM.

For `O=C(NCCCCOc1ccc(C(=C2C3CC4CC(C3)CC2C4)c2ccc(O)cc2)cc1)C12CC3CC(CC1C3)C2`, the IC50 in test [1] came to 2 nM.
